Several values for one entry are separate records, joined by “and”; a condition that tells them apart may be missing. Equal values may be shown once.
Tests used:
Assay type in all cases: cell-based, human
[1] = test system: ISRE in THP-1 cells (TLR3 agonist polyI:C); assay: THP-1 ISRE luciferase reporter, polyI:C stimulation; settings: polyI:C 1 µg/mL, 4 μM compound, 16 h
Protocol: (§1) THP-1 in vitro experiments
(§2) THP-1-DualTM cells (InvivoGen), derived from a human monocytic cell line, isolated from a patient with acute monocytic leukaemia, were cultured as per manufacturer’s guidance. Cells were seeded at 1x10^6 cells/mL in RPMI1640 media containing 10% fetal bovine serum (FBS), 1% penicillin-streptomycin (PS) (Gibco Laboratories) with DMSO (0.1%) (control) or in media containing JMS-175- […]
(§3) ng/mL) (Merck Life Science), ODN 2216 (1 µM) (Miltenyi Biotec), or Poly:IC (1 µg/mL) (InvivoGen).
(§4) Tofacitinib (Cambridge Biosciences) at 0.4 µM was used for comparison against a known JAK inhibitor.
(§5) Cells were centrifuged at 300 g for 5 minutes. Supernatant was removed and subjected to simultaneous study of the NF -κB pathway, by monitoring the activity of secreted alkaline phosphatase reporter (SEAP), and the IRF pathway, by assessing the activity o f a secreted Lucia luciferase using QUANTI - Blue ™ Solution and QUANTI -Luc™ 4 Lucia/Gaussia (InvivoGen), respectively, as per manufacturer’s instructions. Pelleted cells were used for FACS analysis using IFNα/β R1 APC-conjugated antibody or isotype control (Biotechne, FAB245A and IC002A), or unstained staining procedure with and without Zombie GreenTM (Biolegend). Samples were analysed using CytoFlex LX (Beckman) (50,000 live cells per condition). Median fluorescence intensity for APC channel gated on single cell live cells was analysed and compared as a percentage to control (no stimulation condition). […]

[2] = test system: NF-κB pathway in THP-1 cells; assay: THP-1 NF-κB pathway SEAP reporter, lipopolysaccharide stimulation; settings: LPS + compound, three replicates
Protocol: as §1, §2, §3, §4, §5

[3] = test system: CXCL10 secretion in healthy PBMCs; assay: Healthy PBMC CXCL10 ELISA, IFNα2-stimulated
Protocol: (§6) PBMCs in vitro experiments
(§7) Peripheral blood mononuclear cells (PBMCs) from healthy and SSc donors were separated using density gradient method (Leucosep™, Greiner Bio-One International) from EDTA anticoagulated peripheral blood; isolated cells were washed twice by PBS. PBMCs were then incubated in RPMI1640 […]
For healthy PBMCs, cells were stimulated with 20 ng/mL of IFN (+/- compounds or DMSO). For SSc PBMCs, cells were in basal conditions with no additional IFN stimulation. Cells were centrifuged at 300 g for 10 minutes. Supernatant was removed and subjected to R&D Systems DY266 Human CXCL10/IP-10 DuoSet ELISA (Biotechne) in duplicates, according to manufacturer’s guidance. Concentration of CXCL10 was determined according to a 4-parameter

[4] = test system: ISG expression in SSc PBMCs; assay: SSc PBMC type I IFN signaling gene expression array, unstimulated
Protocol: as §6, §7
(§8) For healthy PBMCs, cells were stimulated with 20 ng/mL of IFN (+/- compounds or DMSO). For SSc PBMCs, cells were in basal conditions with no additional IFN stimulation. Cells were centrifuged at 300 g for 10 minutes. […]
(§9) RNA was extracted from cell pellets using TRIzol™ (ThermoFisher
(§10) Scientific, Waltham, MA) and processed using Quick-RNA Miniprep Kit (Zymo Research) as per the manufacturer’s instruction.
(§11) For Type I IFN signalling analysis, the human IFN I RT2 Profiler PCR Array (Qiagen, PAMM-016ZE) was performed on available RNA from healthy (n=3) and SSc (n=9) donors. RNA was converted to cDNA using RT2 First Strand Kit (Qiagen). Next, the cDNA was mixed with RT2 SYBR Green Mastermix (Qiagen, Venlo). Successful PCR performance was confirmed by assay tests for genomic DNA contamination, RNA sample quality, as well as single melt curve determination and <35 Ct for each gene, leading to validated gene expression of 67 genes. Relative expression for each gene was determined, firstly by ∆CT calculated using the geometric mean of 4 housekeeping genes (ACTB, GAPDH, HPRT1, RPLP0), followed by 2^(-∆CT), and expressed as fold change to control, according to manufacturer’s guidance. IFN2α-induced ISGs in healthy donors were determined using a Student’s t-test (two-tail distribution and equal variances) on the triplicate fold change in 2^(-ΔCT) values between […]
(§12) donors). Heatmaps were generated using the “pheatmap” function in R (v4.0.2) and RStudio (v1.3.1093) applying row scaling to standardise the expression data across samples (R core team 2020.
(§13) R Foundation for Statistical Computing). The IFN2α inducible genes determined in healthy donors […]
(§14) 171-C. To account for Type I IFN signalling heterogeneity across samples, the mean 2^(-∆CT) for each […]
(§15) relative gene expression, illustrated as a fold change and visualised in log2. The Type I IFN signalling array data for the patient samples is included in Source Data Figure 6, Extended Data Fig. 9.

[5] = test system: composite ISG score in SSc PBMCs; assay: SSc PBMC composite ISG score (CXCL10, IFIT1, ISG15, MX1)
Protocol: as §6, §7, §8, §9, §10, §11, §12, §13, §14, §15

[6] = test system: ISG expression in MCF10A Cas9 cells expressing BRCC45 WT; assay: MCF10A BRCC45 WT ISG expression (RT–qPCR); settings: hIFNα2 75 ng/ml, 2.5 μM, 4 h
[7] = unstimulated PBMCs from SSc patients, one value per patient (P1-P9)
[8] = sheet Ext. 9e, SSc PBMCs, 20 values per compound (one per patient sample)

O=C(NC1CCNCC1)c1nn(C(=O)c2c(Cl)cccc2Cl)cc1NC(=O)c1c(Cl)cccc1Cl [JMS-175-2]
ISRE luciferase signal in THP-1 supernatant [1]: 486.333 and 543 and 491 | NF-κB SEAP reporter signal [2]: 1.156 and 1.103 and 1.152 | CXCL10, healthy donor PBMCs (Fig. 6c) ([3]; Healthy donor HC1): 63.2851 | CXCL10, healthy donor PBMCs (Fig. 6c) ([3]; Healthy donor HC2): 45.1027 | CXCL10, healthy donor PBMCs (Fig. 6c) ([3]; Healthy donor HC3): 43.5189 | number of ISGs (of 34) reduced compared to AP-5-145 ([4]; SSc PBMCs (n = 9), 2 µM, 16 h): 22 | ADAR, Type I IFN signalling array raw data [4, 7]: 3.812 and 3.743 and 4.113 and 4.435 and 3.832 and 4.965 and 3.1007 and 4.473 and 4.363 | BST2, Type I IFN signalling array raw data [4, 7]: 2.634 and 3.889 and 3.072 and 2.87 and 3.494 and 3.795 and 4.633 and 2.6092 and 2.483 | CASP1, Type I IFN signalling array raw data [4, 7]: 1.213 and 2.812 and 2.398 and 2.039 and 1.156 and 2.52 and 2.747 and 2.114 and 1.958 | CD86, Type I IFN signalling array raw data [4, 7]: 3.228 and 5.906 and 3.901 and 5.361 and 5.149 and 4.521 and 6.493 and 4.685 and 4.196 | CXCL10, Type I IFN signalling array raw data [4, 7]: 8.71 and 7.706 and 4.205 and 4.635 and 4.659 and 4.1108 and 5.782 and 5.515 and 4.585 | DDX58, Type I IFN signalling array raw data [4, 7]: 2.743 and 2.94 and 3.022 and 3.298 and 2.839 and 3.98 and 3.519 and 2.665 and 2.269 | GBP1, Type I IFN signalling array raw data [4, 7]: 2.158 and 2.728 and 1.98 and 1.48 and 2.261 and 1.7592 and 1.143 and 2.383 and 0.7799 | IFI6, Type I IFN signalling array raw data [4, 7]: 2.425 and 3.947 and 3.076 and 2.468 and 2.755 and 3.753 and 4.379 and 1.895 and 1.403 | IFI16, Type I IFN signalling array raw data [4, 7]: 2.049 and 1.794 and 2.214 and 1.769 and 1.846 and 2.52 and 0.8721 and 1.744 and 1.344 | IFIH1, Type I IFN signalling array raw data [4, 7]: 4.067 and 4.072 and 3.5554 and 2.793 and 3.2049 and 5.377 and 3.587 and 3.865 and 3.376 | IFIT1, Type I IFN signalling array raw data [4, 7]: 6.813 and 5.481 and 4.387 and 3.431 and 4.758 and 6.993 and 4.645 and 3.607 and 3.511 | IFIT2, Type I IFN signalling array raw data [4, 7]: 3.877 and 4.276 and 4.33 and 2.588 and 4.403 and 4.745 and 2.229 and 3.19 and 2.838 | IFIT3, Type I IFN signalling array raw data [4, 7]: 4.821 and 4.968 and 3.571 and 2.478 and 4.365 and 4.923 and 2.496 and 2.53 and 2.343 | IFITM1, Type I IFN signalling array raw data [4, 7]: 1.018 and 0.9593 and 1.422 and 1.403 and 1.369 and 1.662 and 1.509 and 1.105 and 0.5587 | IFITM2, Type I IFN signalling array raw data [4, 7]: 4.116 and 4.7 and 5.192 and 4.824 (2×) and 4.737 and 4.678 and 5.159 and 5.095 | IFITM3, Type I IFN signalling array raw data [4, 7]: 2.916 and 4.165 and 3.837 and 2.08 and 3.733 and 4.352 and 4.508 and 1.719 and 2.211 | IRF1, Type I IFN signalling array raw data [4, 7]: 1.526 and 2.165 and 1.923 and 0.6715 and 1.654 and 1.161 and 1.159 and 2.105 and 0.7689 | IRF7, Type I IFN signalling array raw data [4, 7]: 5.385 and 5.096 and 5.885 and 3.925 and 5.478 and 5.126 and 4.9117 and 4.798 and 3.676 | IRF9, Type I IFN signalling array raw data [4, 7]: 1.63 and 2.363 and 2.229 and 1.688 and 2.545 and 2.717 and 2.001 and 1.778 and 1.074 | ISG15, Type I IFN signalling array raw data [4, 7]: 7.828 and 5.157 and 3.914 and 1.97 and 4.252 and 5.488 and 3.54 and 2.475 and 2.54 | ISG20, Type I IFN signalling array raw data [4, 7]: 2.454 and 3.36 and 3.266 and 3.42 and 2.95 and 3.395 and 3.115 and 4.07 and 2.362 | MX1, Type I IFN signalling array raw data [4, 7]: 4.39 and 3.317 and 4.478 and 2.343 and 4.002 and 5.299 and 4.681 and 3.297 and 2.96 | MX2, Type I IFN signalling array raw data [4, 7]: 4.119 and 3.616 and 4.1617 and 3.303 and 3.807 and 5.104 and 3.9466 and 3.181 and 2.652 | MYD88, Type I IFN signalling array raw data [4, 7]: 2.47 and 3.66 and 3.439 and 3.359 and 3.397 and 3.681 and 4.188 and 3.514 and 3.446 | NMI, Type I IFN signalling array raw data [4, 7]: 1.562 and 2.473 and 2.043 and 2.157 and 2.037 and 2.367 and 1.861 and 2.107 and 1.945 | OAS1, Type I IFN signalling array raw data [4, 7]: 3.9946 and 5.08 and 3.975 and 3.103 and 3.832 and 4.439 and 4.753 and 3.122 and 2.562 | OAS2, Type I IFN signalling array raw data [4, 7]: 4.012 and 3.3146 and 4.469 and 3.575 and 4.215 and 3.938 and 4.568 and 3.269 and 1.99 | PML, Type I IFN signalling array raw data [4, 7]: 3.464 and 4.0817 and 4.578 and 3.206 and 4.344 and 4.48 and 3.583 and 3.774 and 3.137 | SOCS1, Type I IFN signalling array raw data [4, 7]: 3.527 and 3.231 and 4.351 and 3.055 and 4.321 and 4.161 and 3.784 and 3.314 and 2.261 | STAT1, Type I IFN signalling array raw data [4, 7]: 0.658 and 1.171 and -0.3774 and -0.03547 and 0.5032 and 0.1577 and 0.4735 and 0.157 and -0.9535 | STAT2, Type I IFN signalling array raw data [4, 7]: 3.702 and 3.438 and 3.148 and 3.834 and 3.166 and 3.676 and 3.7416 and 3.178 and 2.42 | STAT3, Type I IFN signalling array raw data [4, 7]: 1.85 and 1.467 and 4.524 and 1.728 and 2.05 and 2.151 and 1.4 and 1.718 and 1.637 | TAP1, Type I IFN signalling array raw data [4, 7]: 1.739 and 1.988 and 2.594 and 1.8192 and 2.316 and 2.659 and 1.447 and 2.0534 and 1.014 | TNFSF10, Type I IFN signalling array raw data [4, 7]: 2.971 and 3.81 and 3.83 and 3.393 and 3.712 and 3.506 and 3.8599 and 3.839 and 2.706 | CXCL10 [5, 8]: 0.2536 and 3.414 and 0.2313 and 0.3588 and 1.2272 and 0.4193 and 1.168 and 0.8338 and 0.6055 and 1.239 and 0.3406 and 0.08106 and 0.000123 and 0.3625 and 0.05611 and 0.1808 and 1.381 and 0.5771 and 0.5421 and 0.1347 | IFIT1 [5, 8]: 0.2366 and 1.382 and 0.8014 and 0.1818 and 0.6785 and 0.4193 and 1.168 and 0.7189 and 1.817 and 1.319 and 1.1 and 0.2301 and 0.1676 and 0.4861 and 0.2758 and 0.6203 and 0.8038 and 0.5004 and 0.169 and 0.3186 | ISG15 [5, 8]: 0.4563 and 0.8641 and 0.6274 and 0.4056 and 0.5557 and 0.616 and 1.197 and 0.8342 and 1.6 and 0.5253 and 1.319 and 0.4936 and 0.2916 and 0.7218 and 0.3961 and 0.8921 and 0.9105 and 0.5615 and 0.4313 and 0.6786 | MX1 [5, 8]: 0.223 and 0.8929 and 1.04 and 0.5006 and 0.9521 and 0.6554 and 1.256 and 0.9444 and 1.592 and 1.073 and 1.238 and 0.494 and 0.2991 and 0.4305 and 0.1662 and 0.4949 and 1.066 and 0.6875 and 0.4778 and 0.5729 | composite ISG score ([5]; unstimulated SSc PBMCs (n = 20), 2 µM, 16 h, relative to AP-5-145): reduced the composite ISG score | ISG expression (ISG15, IFIT1, IFIT2, IFITM1, CXCL10) [6]: reduced gene expression for all five ISGs
